Reference: US10689398B2, “OXA-Diazaspiro compounds having activity against pain” (ESTEVE PHARMACEUTICALS, S.A., priority 2015, dated 2020)

Biological target: human σ1 receptor (Homo sapiens (Human), UniProt Q99720)
Assay: Human σ1 receptor radioligand assay
Assay type: binding
Conditions: transfected HEK-293 membranes, [3H](+)-pentazocine radioligand
Experimental: Human σ1 Receptor Radioligand Assay
To investigate binding properties of test compounds to human σ1 receptor, transfected HEK-293 membranes and [^3H](+)-pentazocine (Perkin Elmer, NET-1056), as the radioligand, were used. The assay was carried out with 7 μg of membrane suspension, 5 nM of [^3H](+)-pentazocine in either absence or presence of either buffer or 10 μM Haloperidol for total and non-specific binding, respectively. Binding buffer contained Tris-HCl 50 mM at pH 8. Plates were incubated at 37° C. for 120 minutes. After the incubation period, the reaction mix was then transferred to MultiScreen HTS, FC plates (Millipore), filtered and plates were washed 3 times with ice-cold 10 mM Tris-HCL (pH7.4). Filters were dried and counted at approximately 40% efficiency in a MicroBeta scintillation counter (Perkin-Elmer) using EcoScint liquid scintillation cocktail

Chain of human σ1 receptor (Q99720 whole entry): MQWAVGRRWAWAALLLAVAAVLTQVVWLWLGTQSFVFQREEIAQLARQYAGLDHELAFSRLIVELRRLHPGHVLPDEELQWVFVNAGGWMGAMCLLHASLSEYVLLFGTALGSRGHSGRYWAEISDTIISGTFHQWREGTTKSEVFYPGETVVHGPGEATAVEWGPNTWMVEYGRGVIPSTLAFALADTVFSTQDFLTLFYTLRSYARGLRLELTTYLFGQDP

SMILES | Ki
CCN1C[C@@]2(CCCN(CCC(C)C)CC2)O[C@H](C)C1=O [Example 46, (2R,6S)-4-ethyl-9-isopentyl-2-methyl-1-oxa-4,9-diazaspiro[5.6]dodecan-3-one] | ≥ 500 nM
c1ccc(CCN2CC3(CN(Cc4ccccc4)CC4(CC4)O3)C2)cc1 [Example 90, 10-benzyl-7-phenethyl-4-oxa-7,10-diazadispiro[2.1.3.3]undecane] | < 100 nM
CC1(C)CN(C(=O)c2ccccc2)CC2(CCCN(CCc3ccccc3)CC2)O1 (stereo not drawn) [Example 34, (2,2-dimethyl-9-phenethyl-1-oxa-4,9-diazaspiro[5.6]dodecan-4-yl)(phenyl)methanone] | < 100 nM
CCN1CC2(CCCN(CCc3ccccc3)C2)OC2(CC2)C1=O (stereo not drawn) [Example 2, 12-Ethyl-7-phenethyl-4-oxa-7,12-diazadispiro[2.1.5.3]tridecan-13-one] | ≥ 500 nM
CCN1C[C@]2(CCCN(CCC(C)C)CC2)O[C@H](C)C1=O [Example 47, (2R,6R)-4-ethyl-9-isopentyl-2-methyl-1-oxa-4,9-diazaspiro[5.6]dodecan-3-one] | ≥ 500 nM
CC(C)CCN1CCCC2(C1)CN(c1ccccc1)CC1(CC1)O2 (stereo not drawn) [Example 20, 7-isopentyl-12-phenyl-4-oxa-7,12-diazadispiro[2.1.5.3]tridecane] | < 100 nM
CC(C)CCN1CCCC2(C1)CN(c1ccccc1)C(=O)C1(CC1)O2 (stereo not drawn) [Example 8, 7-isopentyl-12-phenyl-4-oxa-7,12-diazadispiro[2.1.5.3]tridecan-13-one] | < 500 nM
O=C1N(c2ccccc2)CC2(CCCN(CCc3ccccc3)C2)OC12CC2 (stereo not drawn) [Example 7, 7-phenethyl-12-phenyl-4-oxa-7,12-diazadispiro[2.1.5.3]tridecan-13-one] | < 500 nM
CCN1C[C@@]2(CCCN(Cc3ccc(F)cc3)CC2)O[C@H](C)C1=O [Example 63, (2R,6S)-4-ethyl-9-(4-fluorobenzyl)-2-methyl-1-oxa-4,9-diazaspiro[5.6]dodecan-3-one] | ≥ 500 nM
CCN1CC2(CCCN(Cc3ccc(C#N)cc3)CC2)OC(C)(C)C1=O (stereo not drawn) [Example 58, 4-((4-ethyl-2,2-dimethyl-3-oxo-1-oxa-4,9-diazaspiro[5.6]dodecan-9-yl)methyl)benzonitrile] | ≥ 500 nM
O=C1N(c2ccccc2)CC2(CCCN(Cc3ccccc3)CC2)OC12CC2 (stereo not drawn) [Example 14, 8-benzyl-13-phenyl-4-oxa-8,13-diazadispiro[2.1.6.3]tetradecan-14-one] | < 100 nM
CCN1C[C@@]2(CCCN(Cc3ccc(C#N)cc3)CC2)O[C@H](C)C1=O [Example 67, 4-(((2R,6S)-4-ethyl-2-methyl-3-oxo-1-oxa-4,9-diazaspiro[5.6]dodecan-9-yl)methyl)benzonitrile] | ≥ 500 nM
CCN1C[C@]2(CCCN(Cc3ccccc3)CC2)O[C@@H](C)C1=O [Example 62, (2S,6R)-9-benzyl-4-ethyl-2-methyl-1-oxa-4,9-diazaspiro[5.6]dodecan-3-one] | ≥ 500 nM
CC1(C)CN(C(=O)c2ccccc2)C[C@@]2(CCCN(CCc3ccccc3)CC2)O1 [Example 95, (S)-(2,2-dimethyl-9-phenethyl-1-oxa-4,9-diazaspiro[5.6]dodecan-4-yl)(phenyl)methanone] | < 500 nM
CCN1CC2(CCCN(CCC(C)C)C2)OC2(CC2)C1=O (stereo not drawn) [Example 1, 12-Ethyl-7-isopentyl-4-oxa-7,12-diazadispiro[2.1.5.3]tridecan-13-one] | ≥ 500 nM
CCN1CC2(CCCN(CCc3ccccc3)CC2)OC2(CC2)C1 (stereo not drawn) [Example 16, 13-Ethyl-8-phenethyl-4-oxa-8,13-diazadispiro[2.1.6.3]tetradecane] | < 100 nM
CCN1C[C@]2(CCCN(Cc3ccc(F)cc3)CC2)O[C@@H](C)C1=O [Example 66, (2S,6R)-4-ethyl-9-(4-fluorobenzyl)-2-methyl-1-oxa-4,9-diazaspiro[5.6]dodecan-3-one] | ≥ 500 nM
CCN1CC2(CC2)OC2(CCCN(CCc3ccccc3)C2)C1 (stereo not drawn) [Example 18] | ≥ 500 nM
CCN1CC(C)(C)OC2(CCCN(CCC(C)C)CC2)C1 (stereo not drawn) [Example 88, 4-ethyl-9-isopentyl-2,2-dimethyl-1-oxa-4,9-diazaspiro[5.6]dodecane] | < 100 nM
CCN1C[C@]2(CCCN(Cc3ccc(F)cc3)CC2)O[C@H](C)C1=O [Example 64, (2R,6R)-4-ethyl-9-(4-fluorobenzyl)-2-methyl-1-oxa-4,9-diazaspiro[5.6]dodecan-3-one] | ≥ 500 nM
CC(C)CN1CCCC2(CC1)CN(Cc1ccccc1)CC1(CC1)O2 (stereo not drawn) [Example 85, 13-benzyl-8-isobutyl-4-oxa-8,13-diazadispiro[2.1.6.3]tetradecane] | < 100 nM
CC(C)CCN1CCCC2(CC1)CN(c1ccccc1)C(=O)C1(CC1)O2 (stereo not drawn) [Example 10, 8-isopentyl-13-phenyl-4-oxa-8,13-diazadispiro[2.1.6.3]tetradecan-14-one] | < 100 nM
CCN1C[C@@]2(CCCN(Cc3ccc(F)cc3)CC2)O[C@@H](C)C1=O [Example 65, (2S,6S)-4-ethyl-9-(4-fluorobenzyl)-2-methyl-1-oxa-4,9-diazaspiro[5.6]dodecan-3-one] | ≥ 500 nM

SMILES | Ki
c1ccc(CCN2CCCC3(CC2)CN(Cc2ccccc2)CC2(CC2)O3)cc1 (stereo not drawn) [Example 83, 13-benzyl-8-phenethyl-4-oxa-8,13-diazadispiro[2.1.6.3]tetradecane] | < 100 nM
CCN1C[C@@]2(CCCN(Cc3ccccc3)CC2)OC2(CC2)C1=O [Example 93, (S)-8-benzyl-13-ethyl-4-oxa-8,13-diazadispiro[2.1.6.3]tetradecan-14-one] | < 100 nM
O=C(c1ccccc1)N1CC2(CCCN(CCc3ccccc3)CC2)OC2(CC2)C1 (stereo not drawn) [Example 27, (8-phenethyl-4-oxa-8,13-diazadispiro[2.1.6.3]tetradecan-13-yl)(phenyl)methanone] | < 100 nM
CCN1CC2(CN(CCC(C)C)C2)O[C@H](C)C1=O [Example 36, (R)-8-ethyl-2-isopentyl-6-methyl-5-oxa-2,8-diazaspiro[3.5]nonan-7-one] | ≥ 500 nM
CCN1CC2(CN(CCc3ccccc3)C2)OC2(CC2)C1=O [Example 5] | < 500 nM
CCN1CC2(CC2)OC2(CCCN(Cc3ccccc3)C2)C1 (stereo not drawn) [Example 17, 7-benzyl-12-ethyl-4-oxa-7,12-diazadispiro[2.1.5.3]tridecane] | ≥ 500 nM
CCN1CC2(CCCN(Cc3ccccc3)CC2)OC2(CC2)C1=O (stereo not drawn) [Example 12, 8-benzyl-13-ethyl-4-oxa-8,13-diazadispiro[2.1.6.3]tetradecan-14-one] | < 100 nM
CCN1C[C@@]2(CCCN(Cc3ccc(C#N)cc3)CC2)O[C@@H](C)C1=O [Example 69, 4-(((2S,6S)-4-ethyl-2-methyl-3-oxo-1-oxa-4,9-diazaspiro[5.6]dodecan-9-yl)methyl)benzonitrile] | ≥ 500 nM
CCN1C[C@]2(CCCN(Cc3ccc(C#N)cc3)CC2)O[C@H](C)C1=O [Example 68, 4-(((2R,6R)-4-ethyl-2-methyl-3-oxo-1-oxa-4,9-diazaspiro[5.6]dodecan-9-yl)methyl)benzonitrile] | ≥ 500 nM
CCN1C[C@]2(CCCN(CCC(C)C)CC2)O[C@@H](C)C1=O [Example 49, (2S,6R)-4-ethyl-9-isopentyl-2-methyl-1-oxa-4,9-diazaspiro[5.6]dodecan-3-one] | ≥ 500 nM
CCN1CC2(CN(Cc3ccccc3)C2)OC2(CC2)C1=O [Example 13, 7-benzyl-10-ethyl-4-oxa-7,10-diazadispiro[2.1.3.3]undecan-11-one] | ≥ 500 nM
CC(C)CCN1CCCC2(C1)CN(C(=O)c1ccccc1)CC1(CC1)O2 (stereo not drawn) [Example 25, (7-isopentyl-4-oxa-7,12-diazadispiro[2.1.5.3]tridecan-12-yl)(phenyl)methanone] | < 500 nM
CN1CC2(CCCN(Cc3ccc(F)cc3)CC2)OC2(CC2)C1=O (stereo not drawn) [Example 72, 8-(4-fluorobenzyl)-13-methyl-4-oxa-8,13-diazadispiro[2.1.6.3]tetradecan-14-one] | ≥ 500 nM
O=C1N(c2ccccc2)CC2(CCCN(CCc3ccccc3)CC2)OC12CC2 (stereo not drawn) [Example 9, 8-phenethyl-13-phenyl-4-oxa-8,13-diazadispiro[2.1.6.3]tetradecan-14-one] | < 100 nM
CCN1CC(C)(C)OC2(CCCN(Cc3ccccc3)CC2)C1 (stereo not drawn) [Example 86, 9-benzyl-4-ethyl-2,2-dimethyl-1-oxa-4,9-diazaspiro[5.6]dodecane] | < 100 nM
CCN1C[C@@]2(CCCN(Cc3ccccc3)CC2)O[C@H](C)C1=O [Example 59, (2R,6S)-9-benzyl-4-ethyl-2-methyl-1-oxa-4,9-diazaspiro[5.6]dodecan-3-one] | ≥ 500 nM
CCN1CC2(CCCN(CCc3ccccc3)CC2)OC2(CC2)C1=O (stereo not drawn) [Example 3, 13-ethyl-8-phenethyl-4-oxa-8,13-diazadispiro[2.1.6.3]tetradecan-14-one] | < 100 nM
CCN1C[C@@]2(CCCN(CCC(C)C)CC2)O[C@@H](C)C1=O [Example 48, (2S,6S)-4-ethyl-9-isopentyl-2-methyl-1-oxa-4,9-diazaspiro[5.6]dodecan-3-one] | ≥ 500 nM
CC(C)N1CC2(CN(CCC(C)(C)C)C2)O[C@H](C)C1=O [Example 45, (R)-2-(3,3-dimethylbutyl)-8-isopropyl-6-methyl-5-oxa-2,8-diazaspiro[3.5]nonan-7-one] | ≥ 500 nM
c1ccc(CCN2CCCC3(CC2)CN(c2ccccc2)CC2(CC2)O3)cc1 (stereo not drawn) [Example 22, 8-phenethyl-13-phenyl-4-oxa-8,13-diazadispiro[2.1.6.3]tetradecane] | < 100 nM
CN1CC2(CCCN(Cc3ccccc3)CC2)OC2(CC2)C1=O (stereo not drawn) [Example 71, 8-benzyl-13-methyl-4-oxa-8,13-diazadispiro[2.1.6.3]tetradecan-14-one] | ≥ 500 nM
CCN1CC2(CN(CC(C)(C)C)C2)O[C@H](C)C1=O [Example 75, (R)-8-ethyl-6-methyl-2-neopentyl-5-oxa-2,8-diazaspiro[3.5]nonan-7-one] | ≥ 500 nM
